Measured values: article PMC8286840, “Identifying SARS-CoV-2 antiviral compounds by screening for small molecule inhibitors of Nsp3 papain-like protease” (Biochemical Journal, 2021)
Where a name gives a salt, the structure may show the parent alone. Read-outs that look alike come from different tables or passages of the source.

Tests used:
[1] = target: T1, SARS-CoV-2 PLpro (nsp3 1564–1878) (Severe acute respiratory syndrome coronavirus 2, UniProt P0DTD1); experiment: biochemical; design: FRET-quenched peptide (Pro3) cleavage by PLpro, 10 min pre-incubation, slope over 20 min, normalised to no-compound control; conditions: low concentration screen, read-out: % of control remaining
[2] = target: T1, SARS-CoV-2 PLpro (nsp3 1564–1878); experiment: biochemical; design: FRET-quenched peptide (Pro3) cleavage by PLpro, 10 min pre-incubation, slope over 20 min, normalised to no-compound control; conditions: high concentration screen, read-out: % of control remaining

COc1cc2c(N3CCN(C(=O)Nc4ccc(OC(C)C)cc4)CC3)ncnc2cc1OCCCN1CCCCC1 [Tandutinib]
remaining activity at 1.25 µM ([1]; Well no.=2851): 104% | remaining activity at 3.75 µM ([2]; Well no.=2851): 104%

C=CCNC1=C2C[C@@H](C)C[C@H](OC)[C@H](O)[C@@H](C)/C=C(\C)[C@H](OC(N)=O)[C@@H](OC)/C=C\C=C(/C)C(=O)NC(=CC1=O)C2=O [Tanespimycin (17-AAG)]
remaining activity at 1.25 µM ([1]; Well no.=8932): 88% | remaining activity at 3.75 µM ([2]; Well no.=8932): 84.1%

O=C(O)COc1cccc(CN(Cc2ccc(-n3cccn3)cc2)S(=O)(=O)c2cccnc2)c1 [Taprenepag]
remaining activity at 1.25 µM ([1]; Well no.=6182): 96% | remaining activity at 3.75 µM ([2]; Well no.=6182): 97.6%

C[C@H](NC(=O)C(C)(C)Oc1ccc(C(F)(F)F)cn1)[C@@H](Cc1ccc(Cl)cc1)c1cccc(C#N)c1 [Taranabant]
remaining activity at 1.25 µM ([1]; Well no.=7147): 103% | remaining activity at 3.75 µM ([2]; Well no.=7147): 87.5%

COc1cc2c(cc1OC)CN(CCc1ccc(NC(=O)c3cc(OC)c(OC)cc3NC(=O)c3cnc4ccccc4c3)cc1)CC2 [Tariquidar]
remaining activity at 1.25 µM ([1]; Well no.=4796): 98.7% | remaining activity at 3.75 µM ([2]; Well no.=4796): 92.7%

CCC(=O)NC[C@@H]1C[C@H]1c1cccc2c1CCO2 [Tasimelteon]
remaining activity at 1.25 µM ([1]; Well no.=6230): 97.6% | remaining activity at 3.75 µM ([2]; Well no.=6230): 99%

C[C@H]1CCN(C(=O)CC#N)C[C@H]1N(C)c1ncnc2[nH]ccc12 [Tasocitinib]
remaining activity at 1.25 µM ([1]; Well no.=2789): 103% | remaining activity at 3.75 µM ([2]; Well no.=2789): 98.6%

NCCS(=O)(=O)O [Taurine]
remaining activity at 1.25 µM ([1]; Well no.=1233): 102% | remaining activity at 1.25 µM ([1]; Well no.=6299): 98.3% | remaining activity at 3.75 µM ([2]; Well no.=1233): 104% | remaining activity at 3.75 µM ([2]; Well no.=6299): 96.7%

C[C@H](CCC(=O)NCCS(=O)(=O)O)[C@H]1CC[C@H]2[C@@H]3[C@H](O)C[C@@H]4C[C@H](O)CC[C@]4(C)[C@H]3CC[C@]12C [Taurochenodeoxycholic acid]
remaining activity at 1.25 µM ([1]; Well no.=6294): 101% | remaining activity at 3.75 µM ([2]; Well no.=6294): 101% | remaining activity at 3.75 µM ([2]; Well no.=6493): 103%

O=S1(=O)CCN(CN2CCS(=O)(=O)NC2)CN1 [Taurolidine]
remaining activity at 1.25 µM ([1]; Well no.=5628): 103% | remaining activity at 3.75 µM ([2]; Well no.=5628): 109%

C[C@H](CCC(=O)NCCS(=O)(=O)O)[C@H]1CC[C@H]2[C@@H]3[C@@H](O)C[C@@H]4C[C@H](O)CC[C@]4(C)[C@H]3CC[C@]12C [Tauroursodeoxycholate (Sodium)]
remaining activity at 1.25 µM ([1]; Well no.=6310): 102% | remaining activity at 3.75 µM ([2]; Well no.=6310): 104%

C[C@H](CCC(=O)NCCS(=O)(=O)O)[C@H]1CC[C@H]2[C@@H]3[C@@H](O)C[C@@H]4C[C@H](O)CC[C@]4(C)[C@H]3CC[C@]12C [Tauroursodeoxycholate dihydrate]
remaining activity at 1.25 µM ([1]; Well no.=7112): 95.4% | remaining activity at 3.75 µM ([2]; Well no.=7112): 93.5%

C[C@H](CCC(=O)NCCS(=O)(=O)O)[C@H]1CC[C@H]2[C@@H]3[C@@H](O)C[C@@H]4C[C@H](O)CC[C@]4(C)[C@H]3CC[C@]12C [Tauroursodeoxycholic Acid (TUDCA)]
remaining activity at 1.25 µM ([1]; Well no.=8200): 109% | remaining activity at 3.75 µM ([2]; Well no.=8200): 107%

C[C@]1(Cn2ccnn2)[C@H](C(=O)O)N2C(=O)C[C@H]2S1(=O)=O [Tazobactam]
remaining activity at 1.25 µM ([1]; Well no.=7934): 97.1% | remaining activity at 3.75 µM ([2]; Well no.=7934): 103%

OC[C@H]1O[C@@H](n2cnc3c(N[C@@H]4CCOC4)ncnc32)[C@H](O)[C@@H]1O [Tecadenoson]
remaining activity at 1.25 µM ([1]; Well no.=7966): 96.9% | remaining activity at 1.25 µM ([1]; Well no.=8315): 94.2% | remaining activity at 3.75 µM ([2]; Well no.=7966): 96.1% | remaining activity at 3.75 µM ([2]; Well no.=8315): 94.4%

CCCCCNC(=N)N/N=C/c1c[nH]c2ccc(OC)cc12 [Tegaserod (maleate)]
remaining activity at 1.25 µM ([1]; Well no.=6615): 103% | remaining activity at 3.75 µM ([2]; Well no.=6615): 104%

O=C(CNC(=O)c1cccc(C(F)(F)F)c1)N[C@@H]1CCN(Cc2ccc(Cl)cc2)C1 [Teijin compound 1 hydrochloride]
remaining activity at 1.25 µM ([1]; Well no.=5505): 104% | remaining activity at 3.75 µM ([2]; Well no.=5505): 112%

CNC(=O)c1cc(COc2nnc(Nc3ccc(Cl)cc3)c3ccoc23)ccn1 [Telatinib (BAY 57-9352)]
remaining activity at 1.25 µM ([1]; Well no.=4858): 99.7% | remaining activity at 3.75 µM ([2]; Well no.=4858): 104%

Cc1cn([C@@H]2C[C@@H](O)[C@H](CO)O2)c(=O)[nH]c1=O [Telbivudine]
remaining activity at 1.25 µM ([1]; Well no.=8380): 92.4% | remaining activity at 1.25 µM ([1]; Well no.=8839): 98.6% | remaining activity at 3.75 µM ([2]; Well no.=8380): 92.3% | remaining activity at 3.75 µM ([2]; Well no.=8839): 96.3%

Cc1scc2c1N(C(=O)CN1CCN(C)CC1)c1ccccc1NC2=O [Telenzepine dihydrochloride]
remaining activity at 1.25 µM ([1]; Well no.=1186): 95.7% | remaining activity at 3.75 µM ([2]; Well no.=1186): 97.7%

CCCc1nc2c(C)cc(-c3nc4ccccc4n3C)cc2n1Cc1ccc(-c2ccccc2C(=O)O)cc1 [Telmisartan]
remaining activity at 1.25 µM ([1]; Well no.=2297): 95.4% | remaining activity at 1.25 µM ([1]; Well no.=6283): 105% | remaining activity at 3.75 µM ([2]; Well no.=2297): 94.3% | remaining activity at 3.75 µM ([2]; Well no.=6283): 108%

CCOC(=O)[C@@H](N)Cc1ccc(-c2cc(O[C@H](c3ccc(Cl)cc3-n3ccc(C)n3)C(F)(F)F)nc(N)n2)cc1 [Telotristat Etiprate (LX 1606 Hippurate)]
remaining activity at 1.25 µM ([1]; Well no.=8288): 92.6% | remaining activity at 3.75 µM ([2]; Well no.=8288): 92.1%

CCOC(=O)[C@H](CCc1ccccc1)N[C@H]1CS[C@H](c2cccs2)CN(CC(=O)O)C1=O [Temocapril (hydrochloride)]
remaining activity at 1.25 µM ([1]; Well no.=8218): 103% | remaining activity at 3.75 µM ([2]; Well no.=8218): 99.9%

CCOC(=O)[C@H](CCc1ccccc1)N[C@H]1CS[C@H](c2cccs2)CN(CC(=O)O)C1=O [Temocapril HCl]
remaining activity at 1.25 µM ([1]; Well no.=4764): 106% | remaining activity at 3.75 µM ([2]; Well no.=4764): 109%

Cn1nnc2c(C(N)=O)ncn2c1=O [Temozolomide]
remaining activity at 1.25 µM ([1]; Well no.=1952): 95% | remaining activity at 3.75 µM ([2]; Well no.=1952): 99.1%

COc1cnc(-n2cnc(C)n2)c2[nH]cc(C(=O)C(=O)N3CCN(C(=O)c4ccccc4)CC3)c12 [Temsavir]
remaining activity at 1.25 µM ([1]; Well no.=7886): 97.2% | remaining activity at 3.75 µM ([2]; Well no.=7886): 98%

CO[C@H]1C[C@@H]2CC[C@@H](C)[C@@](O)(O2)C(=O)C(=O)N2CCCC[C@H]2C(=O)O[C@H]([C@H](C)C[C@@H]2CC[C@@H](OC(=O)C(C)(CO)CO)[C@H](OC)C2)CC(=O)[C@H](C)/C=C(\C)[C@@H](O)[C@@H](OC)C(=O)[C@H](C)C[C@H](C)/C=C/C=C/C=C/1C [Temsirolimus]
remaining activity at 1.25 µM ([1]; Well no.=8412): 95.2% | remaining activity at 3.75 µM ([2]; Well no.=8412): 91.8%

COc1ccc2[nH]c([S+]([O-])Cc3ncc(C)c(OC)c3C)nc2n1 (stereo not drawn) [Tenatoprazole]
remaining activity at 1.25 µM ([1]; Well no.=1950): 98.5% | remaining activity at 3.75 µM ([2]; Well no.=1950): 95.8%

Cc1cc(N2CCN([C@@H]3CN[C@H](C(=O)N4CCSC4)C3)CC2)n(-c2ccccc2)n1 [Teneligliptin hydrobromide]
remaining activity at 1.25 µM ([1]; Well no.=8110): 107% | remaining activity at 3.75 µM ([2]; Well no.=8110): 106%

CC(C)OC(=O)OCOP(=O)(CO[C@H](C)Cn1cnc2c(N)ncnc21)OCOC(=O)OC(C)C [Tenofovir Disoproxil Fumarate]
remaining activity at 1.25 µM ([1]; Well no.=4811): 97.8% | remaining activity at 3.75 µM ([2]; Well no.=4811): 99.5%
